Test results published in ChEMBL document CHEMBL1133079, “Synthesis and antibacterial activity of novel 6-O-substituted erythromycin A derivatives” (2000).
Converted amounts (≈) assume the structure as drawn.

Legend:
Format in all cases: functional
Streptococcus pyogenes [1] = test: In vitro minimum inhibitory concentration against Streptococcus pyogenes PIU 2548 using standard agar dilution method
Streptococcus pneumoniae [2] = test: In vitro minimum inhibitory concentration against Streptococcus pneumoniae 5649.
Staphylococcus aureus [3] = test: In vitro minimum inhibitory concentration against Staphylococcus aureus A5177.
Streptococcus pneumoniae [4] = test: In vitro minimum inhibitory concentration against Streptococcus pneumoniae 5737.
Streptococcus pyogenes [5] = test: In vitro minimum inhibitory concentration against Streptococcus pyogenes 930 using standard agar dilution method
Streptococcus pyogenes [6] = test: In vitro minimum inhibitory concentration against Streptococcus pyogenes EES61 using standard agar dilution method
Staphylococcus aureus [7] = test: In vitro minimum inhibitory concentration against Staphylococcus aureus 6538P using standard agar dilution method
Haemophilus influenzae = test: In vitro minimum inhibitory concentration against Haemophilus influenzae DILL using standard agar dilution method
Streptococcus pneumoniae [8] = test: In vitro minimum inhibitory concentration against Streptococcus pneumoniae ATCC 6303.

## CC[C@H]1OC(=O)[C@H](C)[C@@H](O[C@H]2C[C@@](C)(OC)[C@@H](O)[C@H](C)O2)[C@H](C)[C@@H](O[C@@H]2O[C@H](C)C[C@H](N(C)C)[C@H]2O)[C@@](C)(OCc2ccccc2)C[C@@H](C)C(=O)[C@H](C)[C@@H](O)[C@]1(C)O
Streptococcus pyogenes [1]
  MIC: 16 µg/mL (≈ 19.4 µM)
Streptococcus pneumoniae [2]
  MIC: 16 µg/mL (≈ 19.4 µM)
Staphylococcus aureus [3]
  MIC: 12.5 µg/mL (≈ 15.2 µM)
Streptococcus pneumoniae [4]
  MIC: 64 µg/mL (≈ 77.7 µM)
Streptococcus pyogenes [5]
  MIC: > 128 µg/mL
Streptococcus pyogenes [6]
  MIC: 0.06 µg/mL (≈ 0.0728 µM)
Staphylococcus aureus [7]
  MIC: 1.56 µg/mL (≈ 1.89 µM)

## CC[C@H]1OC(=O)[C@H](C)[C@@H](O[C@H]2C[C@@](C)(OC)[C@@H](O)[C@H](C)O2)[C@H](C)[C@@H](O[C@@H]2O[C@H](C)C[C@H](N(C)C)[C@H]2O)[C@@](C)(OC/C=C/c2ccccc2)C[C@@H](C)C(=O)[C@H](C)[C@@H](O)[C@]1(C)O
Streptococcus pyogenes [1]
  MIC: 16 µg/mL (≈ 18.8 µM)
Streptococcus pneumoniae [2]
  MIC: 4 µg/mL (≈ 4.71 µM)
Staphylococcus aureus [3]
  MIC: 6.2 µg/mL (≈ 7.29 µM)
Haemophilus influenzae
  MIC: 4 µg/mL (≈ 4.71 µM)
Streptococcus pneumoniae [4]
  MIC: 32 µg/mL (≈ 37.6 µM)
Streptococcus pyogenes [5]
  MIC: 32 µg/mL (≈ 37.6 µM)
Streptococcus pneumoniae [8]
  MIC: 0.06 µg/mL (≈ 0.0706 µM)
Streptococcus pyogenes [6]
  MIC: 0.03 µg/mL (≈ 0.0353 µM)
Staphylococcus aureus [7]
  MIC: 0.39 µg/mL (≈ 0.459 µM)

## CC[C@H]1OC(=O)[C@H](C)[C@@H](O[C@H]2C[C@@](C)(OC)[C@@H](O)[C@H](C)O2)[C@H](C)[C@@H](O[C@@H]2O[C@H](C)C[C@H](N(C)C)[C@H]2O)[C@@](C)(OCC2CO2)C[C@@H](C)C(=O)[C@H](C)[C@@H](O)[C@]1(C)O (some centres not stated)
Streptococcus pyogenes [1]
  MIC: > 128 µg/mL
Staphylococcus aureus [3]
  MIC: 25 µg/mL (≈ 31.6 µM)
Haemophilus influenzae
  MIC: > 128 µg/mL
Streptococcus pyogenes [5]
  MIC: > 128 µg/mL
Streptococcus pyogenes [6]
  MIC: 4 µg/mL (≈ 5.06 µM)
Staphylococcus aureus [7]
  MIC: 25 µg/mL (≈ 31.6 µM)

## C#CCO[C@@]1(C)C[C@@H](C)C(=O)[C@H](C)[C@@H](O)[C@](C)(O)[C@@H](CC)OC(=O)[C@H](C)[C@@H](O[C@H]2C[C@@](C)(OC)[C@@H](O)[C@H](C)O2)[C@H](C)[C@H]1O[C@@H]1O[C@H](C)C[C@H](N(C)C)[C@H]1O
Streptococcus pneumoniae [2]
  MIC: 16 µg/mL (≈ 20.7 µM)
Staphylococcus aureus [3]
  MIC: 12.5 µg/mL (≈ 16.2 µM)
Haemophilus influenzae
  MIC: 16 µg/mL (≈ 20.7 µM)
Streptococcus pneumoniae [4]
  MIC: > 128 µg/mL
Streptococcus pyogenes [5]
  MIC: > 128 µg/mL
Streptococcus pneumoniae [8]
  MIC: 0.06 µg/mL (≈ 0.0777 µM)
Streptococcus pyogenes [6]
  MIC: 0.03 µg/mL (≈ 0.0389 µM)
Staphylococcus aureus [7]
  MIC: 0.2 µg/mL (≈ 0.259 µM)

## CC[C@H]1OC(=O)[C@H](C)[C@@H](O[C@H]2C[C@@](C)(OC)[C@@H](O)[C@H](C)O2)[C@H](C)[C@@H](O[C@@H]2O[C@H](C)C[C@H](N(C)C)[C@H]2O)[C@@](C)(OCCNCc2ccccc2)C[C@@H](C)C(=O)[C@H](C)[C@@H](O)[C@]1(C)O
Streptococcus pyogenes [1]
  MIC: 64 µg/mL (≈ 73.8 µM)
Streptococcus pneumoniae [2]
  MIC: 32 µg/mL (≈ 36.9 µM)
Staphylococcus aureus [3]
  MIC: 12.5 µg/mL (≈ 14.4 µM)
Haemophilus influenzae
  MIC: 8 µg/mL (≈ 9.23 µM)
Streptococcus pneumoniae [4]
  MIC: > 128 µg/mL
Streptococcus pyogenes [5]
  MIC: > 128 µg/mL
Streptococcus pneumoniae [8]
  MIC: 0.125 µg/mL (≈ 0.144 µM)
Streptococcus pyogenes [6]
  MIC: 0.25 µg/mL (≈ 0.288 µM)
Staphylococcus aureus [7]
  MIC: 0.78 µg/mL (≈ 0.9 µM)

## CC[C@H]1OC(=O)[C@H](C)[C@@H](O[C@H]2C[C@@](C)(OC)[C@@H](O)[C@H](C)O2)[C@H](C)[C@@H](O[C@@H]2O[C@H](C)C[C@H](N(C)C)[C@H]2O)[C@@](C)(OCc2ccc(F)cc2)C[C@@H](C)C(=O)[C@H](C)[C@@H](O)[C@]1(C)O
Streptococcus pyogenes [1]
  MIC: 8 µg/mL (≈ 9.5 µM)
Streptococcus pneumoniae [2]
  MIC: 8 µg/mL (≈ 9.5 µM)
Staphylococcus aureus [3]
  MIC: 12.5 µg/mL (≈ 14.8 µM)
Haemophilus influenzae
  MIC: 64 µg/mL (≈ 76 µM)
Streptococcus pneumoniae [4]
  MIC: 8 µg/mL (≈ 9.5 µM)
Streptococcus pyogenes [5]
  MIC: 8 µg/mL (≈ 9.5 µM)
Streptococcus pneumoniae [8]
  MIC: 1 µg/mL (≈ 1.19 µM)
Streptococcus pyogenes [6]
  MIC: 1 µg/mL (≈ 1.19 µM)
Staphylococcus aureus [7]
  MIC: 3.1 µg/mL (≈ 3.68 µM)

## CC[C@H]1OC(=O)[C@H](C)[C@@H](O[C@H]2C[C@@](C)(OC)[C@@H](O)[C@H](C)O2)[C@H](C)[C@@H](O[C@@H]2O[C@H](C)C[C@H](N(C)C)[C@H]2O)[C@@](C)(OC/C=N/O)C[C@@H](C)C(=O)[C@H](C)[C@@H](O)[C@]1(C)O
Streptococcus pyogenes [1]
  MIC: 64 µg/mL (≈ 80.9 µM)
Streptococcus pneumoniae [2]
  MIC: 32 µg/mL (≈ 40.5 µM)
Haemophilus influenzae
  MIC: 16 µg/mL (≈ 20.2 µM)
Streptococcus pneumoniae [4]
  MIC: > 128 µg/mL
Streptococcus pneumoniae [8]
  MIC: 0.06 µg/mL (≈ 0.0759 µM)
Streptococcus pyogenes [6]
  MIC: 0.015 µg/mL (≈ 0.019 µM)
Staphylococcus aureus [7]
  MIC: 0.2 µg/mL (≈ 0.253 µM)

## CC[C@H]1OC(=O)[C@H](C)[C@@H](O[C@H]2C[C@@](C)(OC)[C@@H](O)[C@H](C)O2)[C@H](C)[C@@H](O[C@@H]2O[C@H](C)C[C@H](N(C)C)[C@H]2O)[C@@](C)(OC/C=C/c2cnc3ccccc3c2)C[C@@H](C)C(=O)[C@H](C)[C@@H](O)[C@]1(C)O
Streptococcus pyogenes [1]
  MIC: 4 µg/mL (≈ 4.44 µM)
Streptococcus pneumoniae [2]
  MIC: 4 µg/mL (≈ 4.44 µM)
Staphylococcus aureus [3]
  MIC: 3.1 µg/mL (≈ 3.44 µM)
Haemophilus influenzae
  MIC: 8 µg/mL (≈ 8.88 µM)
Streptococcus pneumoniae [4]
  MIC: 128 µg/mL (≈ 142 µM)
Streptococcus pyogenes [5]
  MIC: 64 µg/mL (≈ 71 µM)
Streptococcus pneumoniae [8]
  MIC: 0.06 µg/mL (≈ 0.0666 µM)
Streptococcus pyogenes [6]
  MIC: 0.06 µg/mL (≈ 0.0666 µM)
Staphylococcus aureus [7]
  MIC: 0.2 µg/mL (≈ 0.222 µM)

## CC[C@H]1OC(=O)[C@H](C)[C@@H](O[C@H]2C[C@@](C)(OC)[C@@H](O)[C@H](C)O2)[C@H](C)[C@@H](O[C@@H]2O[C@H](C)C[C@H](N(C)C)[C@H]2O)[C@@](C)(OCCO)C[C@@H](C)C(=O)[C@H](C)[C@@H](O)[C@]1(C)O
Streptococcus pyogenes [1]
  MIC: 64 µg/mL (≈ 82.3 µM)
Streptococcus pneumoniae [2]
  MIC: 32 µg/mL (≈ 41.1 µM)
Staphylococcus aureus [3]
  MIC: 6.2 µg/mL (≈ 7.97 µM)
Haemophilus influenzae
  MIC: 8 µg/mL (≈ 10.3 µM)
Streptococcus pneumoniae [4]
  MIC: > 64 µg/mL
Streptococcus pyogenes [5]
  MIC: > 64 µg/mL
Streptococcus pneumoniae [8]
  MIC: 0.125 µg/mL (≈ 0.161 µM)
Streptococcus pyogenes [6]
  MIC: 0.125 µg/mL (≈ 0.161 µM)
Staphylococcus aureus [7]
  MIC: 0.39 µg/mL (≈ 0.501 µM)

## CC[C@H]1OC(=O)[C@H](C)[C@@H](O[C@H]2C[C@@](C)(OC)[C@@H](O)[C@H](C)O2)[C@H](C)[C@@H](O[C@@H]2O[C@H](C)C[C@H](N(C)C)[C@H]2O)[C@@](C)(OCC=O)C[C@@H](C)C(=O)[C@H](C)[C@@H](O)[C@]1(C)O
Streptococcus pyogenes [1]
  MIC: 128 µg/mL (≈ 165 µM)
Streptococcus pneumoniae [2]
  MIC: 64 µg/mL (≈ 82.5 µM)
Staphylococcus aureus [3]
  MIC: 25 µg/mL (≈ 32.2 µM)
Haemophilus influenzae
  MIC: 8 µg/mL (≈ 10.3 µM)
Streptococcus pneumoniae [4]
  MIC: > 128 µg/mL
Streptococcus pyogenes [5]
  MIC: > 128 µg/mL
Streptococcus pneumoniae [8]
  MIC: 0.5 µg/mL (≈ 0.644 µM)
Streptococcus pyogenes [6]
  MIC: 0.06 µg/mL (≈ 0.0773 µM)
Staphylococcus aureus [7]
  MIC: 0.78 µg/mL (≈ 1.01 µM)
